These results are taken from ChEMBL document CHEMBL5046268, “Synthesis, Biological Evaluation, and Molecular Modeling Studies of 3,4-Diarylpyrazoline Series of Compounds as Potent, Nonbrain Penetrant Antagonists of Cannabinoid-1 (CB1R) Receptor with Reduced Lipophilicity” (J Med Chem, 2022).

Calls of active or inactive are those of the source. No cut-off for these calls is given here. A value given as a limit tells only on which side of the number the result lay.

In data set [1] the target is T1, Cannabinoid receptor 1 (Homo sapiens, UniProt P21554). The experiment in a line: Displacement of [3H]- CP55940 from human CB1R expressed in CHO-K1 cells membrane by Cheng-Prusoff equation analysis. Type of data set: cell membranes, Cell membrane. The settings on record: read-out: Ki. In general terms: Displacement assays read how much labelled ligand stays bound in the presence of the test substance.
T1 sequence (P21554 whole entry): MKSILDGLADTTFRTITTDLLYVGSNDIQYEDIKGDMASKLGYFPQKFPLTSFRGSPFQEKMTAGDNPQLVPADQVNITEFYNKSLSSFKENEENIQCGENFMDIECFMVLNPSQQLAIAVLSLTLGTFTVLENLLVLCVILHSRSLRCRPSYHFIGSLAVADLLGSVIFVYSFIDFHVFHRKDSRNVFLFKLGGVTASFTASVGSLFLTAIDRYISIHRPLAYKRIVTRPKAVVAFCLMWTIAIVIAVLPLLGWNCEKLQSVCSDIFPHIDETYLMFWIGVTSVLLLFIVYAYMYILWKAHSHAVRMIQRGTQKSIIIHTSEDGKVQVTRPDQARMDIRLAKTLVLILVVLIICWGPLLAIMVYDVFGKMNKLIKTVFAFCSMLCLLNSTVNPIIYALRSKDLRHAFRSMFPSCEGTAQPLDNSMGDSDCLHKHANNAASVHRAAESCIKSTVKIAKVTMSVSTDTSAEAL

The next data set deals with Cannabinoid receptor 2 (Homo sapiens, UniProt P34972). Put plainly: Displacement of [3H]- CP55940 from human CB2R expressed in CHO-K1 cells membrane by Cheng-Prusoff equation analysis. Format: cell membranes, Cell membrane. The settings on record: read-out: Ki.
Chain of Cannabinoid receptor 2 (P34972 whole entry): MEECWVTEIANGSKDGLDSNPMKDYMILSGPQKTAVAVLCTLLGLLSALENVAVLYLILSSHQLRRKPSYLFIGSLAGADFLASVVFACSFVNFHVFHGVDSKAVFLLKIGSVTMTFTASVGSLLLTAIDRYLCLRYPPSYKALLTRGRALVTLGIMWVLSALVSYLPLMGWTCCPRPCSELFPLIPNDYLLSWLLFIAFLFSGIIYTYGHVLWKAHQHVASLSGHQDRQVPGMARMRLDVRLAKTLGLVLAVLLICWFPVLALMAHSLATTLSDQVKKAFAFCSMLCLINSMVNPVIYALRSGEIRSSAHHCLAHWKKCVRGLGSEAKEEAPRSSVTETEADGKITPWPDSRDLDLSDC
Data set [2] deals with T1, Cannabinoid receptor 1. The experiment in a line: Antagonist activity at human CB1R expressed in CHO-K1 cell membranes assessed as stimulation of [35S]-GTPgammaS binding by liquid scintillation counting method. Format: functional, Cell membrane. The following applies: read-out: IC50.
The nature of data set [3]: Drug distribution in C57BL/6J mouse plasma at 10 mg/kg, ip incubated for 1 hrs by LC/MS/MS analysis. Format: ADME, organism-based. The settings on record: in vivo.
Data set [4] is described as follows: Drug distribution in C57BL/6J mouse liver at 10 mg/kg, ip incubated for 1 hrs by LC/MS/MS analysis. Type of data set: ADME, organism-based. The settings on record: in vivo.
The nature of data set [5]: Ratio of drug level in C57BL/6J mouse brain to plasma at 10 mg/kg, ip incubated for 1 hrs by LC/MS/MS analysis. The following applies: read-out: BPR. Type of data set: ADME, organism-based.
Data set [6] has as its target T1, Cannabinoid receptor 1. Put plainly: Inverse agonist activity at human CB1R expressed in CHO-K1 cell membrane assessed as […] in [35S]GTPgammaS binding. Format: functional, cell membranes. A general note: GTPγS resists hydrolysis and so accumulates on activated G proteins.
Data set [7] is described as follows: Drug distribution in C57BL/6J mouse brain at 10 mg/kg, ip incubated for 1 hrs by LC/MS/MS analysis. The following applies: in vivo. Format: ADME, organism-based.
A short description of data set [8]: Microsomal stability in human liver microsomes assessed as half life at 3 mg/kg, ip by LC-MS/MS analysis. Type of data set: ADME, Microsome. (Liver microsomes are a subcellular fraction often used to study metabolism.)
Data set [9] in a line: Protein binding in mouse plasma assessed as […] at 5 uM and incubated for 4 hrs by LC-MS/MS analysis. The settings on record: read-out: PPB. Format: ADME, cell-free.
Data set [10] can be described thus: Microsomal stability in C57BL/6J mouse liver microsomes assessed as half life at 3 mg/kg, ip by LC-MS/MS analysis. Format: ADME, Microsome.
A short description of data set [11]: Stability in C57BL/6J mouse plasma assessed as half life at 3 mg/kg, ip by LC-MS/MS analysis. Format: ADME, organism-based.
The subject of data set [12] is Mus musculus. The experiment in a line: Anti-obesity activity in high fat diet-induced obese C57BL/6J mouse assessed as reduction in body weight at 10 mg/kg, ip measured every daily for 1 weeks. Type of data set: functional. The settings on record: 168 h.
Data set [13] relates to Mus musculus. The experiment in a line: Anti-obesity activity in high fat diet-induced obese C57BL/6J mouse assessed as reduction in food intake at 10 mg/kg, ip measured every daily for 1 weeks. Type of data set: functional, organism-based.
Data set [14] can be described thus: Protein binding in human plasma assessed as […] at 5 uM for 4 hrs by LC-MS/MS analysis. The following applies: read-out: PPB. Type of data set: ADME, cell-free.
Data set [15] deals with Mus musculus. The experiment in a line: Anti-obesity activity in high fat diet-induced obese C57BL/6J mouse assessed as reduction in body weight at 3 mg/kg, ip dosed daily for 1 week. Format: functional. The following applies: 168 h, time 1 weeks.
The test system of data set [16] is Mus musculus. Put plainly: Anti-obesity activity in high fat diet-induced obese C57BL/6J mouse assessed as reduction in food intake at 3 mg/kg, ip dosed daily for 1 week. Format: functional, organism-based. The following applies: time 1.0 weeks.
Data set [17] has as its target Nitric oxide synthase, inducible (Homo sapiens) (UniProt P35228). The experiment in a line: Inhibition of recombinant iNOS (unknown origin) assessed as reduction in L-[3H]-citrulline level using L-[3H]-arginine as substrate at 10 uM by Enzymatic NOS activity assay.

Chain of Nitric oxide synthase, inducible (Homo sapiens) (P35228 whole entry): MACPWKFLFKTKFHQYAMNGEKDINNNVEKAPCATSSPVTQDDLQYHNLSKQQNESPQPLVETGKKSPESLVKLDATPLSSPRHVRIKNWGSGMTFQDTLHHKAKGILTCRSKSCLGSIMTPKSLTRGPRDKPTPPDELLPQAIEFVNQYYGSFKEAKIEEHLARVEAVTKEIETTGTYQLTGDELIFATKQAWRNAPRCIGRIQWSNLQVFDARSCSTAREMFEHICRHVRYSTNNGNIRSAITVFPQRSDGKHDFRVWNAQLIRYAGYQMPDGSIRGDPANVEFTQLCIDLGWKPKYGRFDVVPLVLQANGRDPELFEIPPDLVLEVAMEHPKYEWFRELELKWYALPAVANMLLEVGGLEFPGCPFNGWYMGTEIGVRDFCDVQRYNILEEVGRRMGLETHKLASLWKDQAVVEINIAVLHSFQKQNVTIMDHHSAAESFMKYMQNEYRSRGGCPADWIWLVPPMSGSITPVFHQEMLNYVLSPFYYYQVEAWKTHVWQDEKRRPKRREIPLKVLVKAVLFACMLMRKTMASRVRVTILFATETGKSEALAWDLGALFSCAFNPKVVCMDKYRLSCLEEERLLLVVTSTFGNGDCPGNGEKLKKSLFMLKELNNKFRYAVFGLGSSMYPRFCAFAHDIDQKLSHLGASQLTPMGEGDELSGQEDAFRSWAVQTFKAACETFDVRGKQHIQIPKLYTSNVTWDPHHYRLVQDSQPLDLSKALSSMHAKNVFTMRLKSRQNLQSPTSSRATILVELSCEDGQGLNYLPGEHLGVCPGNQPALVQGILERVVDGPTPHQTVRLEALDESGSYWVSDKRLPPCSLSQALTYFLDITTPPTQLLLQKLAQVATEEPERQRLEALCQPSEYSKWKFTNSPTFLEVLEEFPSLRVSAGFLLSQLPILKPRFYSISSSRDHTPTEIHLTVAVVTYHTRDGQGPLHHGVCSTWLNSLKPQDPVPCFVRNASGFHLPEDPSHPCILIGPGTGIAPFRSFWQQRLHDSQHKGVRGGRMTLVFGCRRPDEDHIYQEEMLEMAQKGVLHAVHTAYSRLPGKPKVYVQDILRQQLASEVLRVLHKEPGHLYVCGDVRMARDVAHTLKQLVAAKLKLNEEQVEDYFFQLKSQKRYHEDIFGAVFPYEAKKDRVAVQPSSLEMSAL

For orientation: Ki means the equilibrium dissociation constant of an inhibitor or competing ligand from its target. The IC50 is the midpoint of a concentration-inhibition curve. For the compound `CC(C)(C)/C(N)=N/C(=N/S(=O)(=O)N1CCC(F)(F)CC1)N1CC(c2ccccc2)C(c2ccc(Cl)cc2)=N1` (stereo not drawn), the figures for the Ki at Cannabinoid receptor 1 [1] and on Cannabinoid receptor 2 were 21 nM and over 1000 nM, respectively. For the same compound, the IC50 on Cannabinoid receptor 1 [2] was found to be 10 nM; at Cannabinoid receptor 1 [6], 3.2 nM. The Drug uptake entry in data set [3], in data set [4] and in data set [7] was “Active” throughout. Besides, the Kp at 1 h in data set [5] worked out at 0.14.
The half-life is how long it takes for the measured level to halve. Broadly, the inhibition in vivo is the change of the read-out against control, counted positive when it falls. For the compound `CCN(CC)S(=O)(=O)/N=C(/N=C(/C)N)N1C[C@H](c2ccccc2)C(c2ccc(Cl)cc2)=N1`, the values for the half-life in data set [8], in data set [10] and in data set [11] were over 2 min, over 2 min and under 120 min, respectively. In addition, the Ki was 1.2 nM at Cannabinoid receptor 1 [1] and 66 nM at Cannabinoid receptor 2. In addition, the IC50 at Cannabinoid receptor 1 [2] was found to be 1.2 nM; on Cannabinoid receptor 1 [6] it was 0.8 nM. Besides, the fraction unbound at 4 h, 5 µM in data set [9] and in data set [14] was at most 0.006 in each case. Further, the inhibition in vivo at 10 mg/kg in the data set on Mus musculus [12] came out at 8%. Besides, in the data set with Mus musculus [13], the outcome was Active.
With `N/C(=N\C(=N\S(=O)(=O)N1CCC(F)(F)CC1)N1CC(c2ccccc2)C(c2ccc(Cl)cc2)=N1)c1ccc(Cl)cc1` (stereo not drawn), the Ki at Cannabinoid receptor 1 [1] is 5.5 nM; on Cannabinoid receptor 2, over 1000 nM. Further, the figures for the half-maximal inhibitory concentration (IC50) on Cannabinoid receptor 1 [2] and at Cannabinoid receptor 1 [6] were 4.2 nM and 2.5 nM, respectively. In addition, the Drug uptake result in [3], in data set [4] and in [7] was “Active” in each case. Further, the Kp at 1 h in data set [5] came to 0.14.
For the compound `CS/C(N)=N/C(=N/S(=O)(=O)N1CCC(C(F)(F)F)CC1)N1C[C@H](c2ccccc2)C(c2ccc(Cl)cc2)=N1`, the Ki at Cannabinoid receptor 1 [1] came out at 0.7 nM; on Cannabinoid receptor 2 it was 334 nM. Besides, the IC50 on Cannabinoid receptor 1 [2] came out at 2 nM; on Cannabinoid receptor 1 [6] it was 1.6 nM. In addition, the fraction unbound at 4 h, 5 µM in [9] and in [14] was at most 0.006 in each case. Also, the half-life in data set [11] is under 120 min. Moreover, the inhibition in vivo at 10 mg/kg in the data set with Mus musculus [12] turned out to be 8%. Moreover, the result with Mus musculus [13] was Active.
In the case of `CC(C)(C)/C(N)=N/C(=N/S(=O)(=O)N1CCC(C(F)(F)F)CC1)N1CC(c2ccccc2)C(c2ccc(Cl)cc2)=N1` (stereo not drawn), the inhibition constant Ki was 1.1 nM on Cannabinoid receptor 1 [1] and over 100 nM at Cannabinoid receptor 2. In addition, the IC50 was determined as 2 nM at Cannabinoid receptor 1 [2] and 1.8 nM on Cannabinoid receptor 1 [6]. The Drug uptake entry in data set [3], in data set [4] and in data set [7] was “Active” in each case. Moreover, the Kp at 1 h in data set [5] stood at 0.15.
Turning to `C/C(N)=N\C(=N\S(=O)(=O)N1CCCCC1)N1C[C@H](c2ccccc2)C(c2ccc(Cl)cc2)=N1`, the results for the half-life in data set [8], in data set [10] and in data set [11] were over 2 min, over 2 min and under 120 min, respectively. Also, the results for the inhibition constant Ki on Cannabinoid receptor 1 [1] and at Cannabinoid receptor 2 were 1.6 nM and 43 nM, respectively. Further, the IC50 is 4 nM on Cannabinoid receptor 1 [2] and 2 nM on Cannabinoid receptor 1 [6]. The fraction unbound at 4 h, 5 µM in data set [9] and in [14] was at most 0.006 throughout. For the same compound, the inhibition in vivo at 3 mg/kg with Mus musculus [15] stood at 8%. Also, in the data set with Mus musculus [16], the result was Active.
As for `CCN(CC)S(=O)(=O)/N=C(/N=C(/C)N)N1CC(c2ccccc2)C(c2ccc(Cl)cc2)=N1` (stereo not drawn), the Ki on Cannabinoid receptor 1 [1] was 5.9 nM; at Cannabinoid receptor 2, over 100 nM. Also, the IC50 on Cannabinoid receptor 1 [2] came out at 1.9 nM. Besides, the Drug uptake entry in [3], in data set [4] and in data set [7] was “Active” in each case. Also, the inhibition entry in data set [17] was “Active”. The Kp at 1 h in data set [5] turned out to be 0.025.
